Experiments:
CDK2/Cyclin E1 complex = CDK2/Cyclin E1 complex (Homo sapiens, UniProt P24941); assay: CDK2 kinase inhibition assay (Caliper/LabChip EZ Reader); format: biochemical; conditions: CDK2/Cyclin E1 0.5 nM, ATP 2 mM, 35 min at 27° C.
Summary of the method: (§1)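 Caliper/LabChip mobility-shift kinase assays at 27° C. CDK9/Cyclin T1 8 nM with 2 μM 5-FAM-CDK9tide, 10 mM MgCl2, 15 min; CDK12/Cyclin K 50 nM with 5-FAM-CDK9tide 2 μM, 2 mM MgCl2, 3 hr; CDK2/Cyclin E1 0.5 nM with 5-FAM-CDK7tide 2 μM, 2 mM MgCl2, 35 min; CDK7 35 min.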

[1] = molecular target: CDK7/Cyclin H/MAT1 complex (Homo sapiens, UniProt P50613); assay: CDK7 kinase inhibition assay (Caliper/LabChip EZ Reader); format: biochemical; conditions: CDK7/Cyclin H/MAT1 6 nM, ATP 2 mM, 35 min at 27° C.
Summary of the method: as §1

CDK9/Cyclin T1 complex = CDK9/Cyclin T1 complex (Homo sapiens, UniProt P50750); assay: CDK9 kinase inhibition assay (Caliper/LabChip EZ Reader); format: biochemical; conditions: CDK9/Cyclin T1 8 nM, ATP 2 mM, 15 min at 27° C.
Summary of the method: as §1

[2] = molecular target: T1, CDK12 (aa686-1082)/Cyclin K complex (Homo sapiens, UniProt Q9NYV4); assay: CDK12 kinase inhibition assay (Caliper/LabChip EZ Reader); format: biochemical; conditions: CDK12 (aa686-1082)/Cyclin K 50 nM, ATP 2 mM, 3 hr at 27° C.
T1 construct: CDK12 (aa686-1082)/Cyclin K complex
Summary of the method: as §1

A673 cells = assay: Inhibition of proliferation of A673 cells (CyQUANT, 72 hour); format: cell-based, human; conditions: read-out: Inhibition of Proliferation of A673 Cells (calculated IC50)
Summary of the method: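 Human Ewing's sarcoma A673 cells in DMEM + 10% FBS + 1 mM sodium pyruvate, 37 °C, 5% CO2. Compounds in 0.5-log serial dilutions, stated range 4 μM to […], for 72 h. Anti-proliferative effect read with CyQUANT per kit directions.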

HCC70 cells = assay: Inhibition of proliferation of HCC70 cells (CyQUANT Direct, 72 hour); format: cell-based, human; conditions: read-out: Inhibition of Proliferation of HCC70 Cells (calculated IC50)
Procedure: HCC70 cells: HCC70 cells are a cell line derived from human triple negative breast cancer. Representative compounds of the invention were tested at different concentrations (from 4 μM to […]; 0.5 log serial dilutions) for their ability to inhibit the proliferation of HCC70 cells. Known CDK inhibitors dinaciclib or N-((1S,3R)-3-((5-chloro-4-(1H-indol-3-yl) pyrimidin-2-yl)amino)cyclohexyl)-5-((E)-4-(dimethylamino)but-2-enamido)picolinamide and triptolide were used as positive controls. Cells were grown in ATCC-formulated RPMI-1640 Medium (ATCC 30-2001)+10% FBS. The cells were cultured at 37° C. in a humidified chamber in the presence of 5% CO2. Proliferation assays were conducted over a 72 hour time period. CyQUANT® Direct Cell Proliferation Assay (Life Technologies, Chicago, Ill. USA) was used to assess the anti-proliferative effects of the compounds following manufacturer's directions and utilizing the reagents supplied with the CyQUANT® Direct Cell kit.

CDK7/Cyclin H/MAT1 complex, sequence (P50613 whole entry): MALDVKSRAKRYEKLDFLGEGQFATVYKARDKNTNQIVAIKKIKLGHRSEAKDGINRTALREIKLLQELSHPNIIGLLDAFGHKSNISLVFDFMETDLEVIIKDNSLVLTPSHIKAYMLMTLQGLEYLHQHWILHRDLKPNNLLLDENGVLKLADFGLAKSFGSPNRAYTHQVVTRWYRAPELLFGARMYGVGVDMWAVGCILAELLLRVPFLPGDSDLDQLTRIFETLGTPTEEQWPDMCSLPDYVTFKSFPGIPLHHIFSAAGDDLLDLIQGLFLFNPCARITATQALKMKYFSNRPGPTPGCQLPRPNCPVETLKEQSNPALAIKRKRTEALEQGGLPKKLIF
CDK7/Cyclin H/MAT1 complex, sequence (P51946 whole entry partner): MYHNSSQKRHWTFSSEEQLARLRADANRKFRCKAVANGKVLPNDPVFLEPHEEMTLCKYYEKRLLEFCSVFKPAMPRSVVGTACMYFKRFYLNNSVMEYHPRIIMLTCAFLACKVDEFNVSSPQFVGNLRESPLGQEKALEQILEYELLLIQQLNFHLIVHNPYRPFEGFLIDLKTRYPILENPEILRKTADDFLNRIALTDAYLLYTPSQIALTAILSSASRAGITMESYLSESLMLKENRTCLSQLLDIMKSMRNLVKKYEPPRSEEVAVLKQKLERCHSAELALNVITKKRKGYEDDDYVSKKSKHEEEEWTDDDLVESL
CDK7/Cyclin H/MAT1 complex, sequence (P51948 whole entry partner): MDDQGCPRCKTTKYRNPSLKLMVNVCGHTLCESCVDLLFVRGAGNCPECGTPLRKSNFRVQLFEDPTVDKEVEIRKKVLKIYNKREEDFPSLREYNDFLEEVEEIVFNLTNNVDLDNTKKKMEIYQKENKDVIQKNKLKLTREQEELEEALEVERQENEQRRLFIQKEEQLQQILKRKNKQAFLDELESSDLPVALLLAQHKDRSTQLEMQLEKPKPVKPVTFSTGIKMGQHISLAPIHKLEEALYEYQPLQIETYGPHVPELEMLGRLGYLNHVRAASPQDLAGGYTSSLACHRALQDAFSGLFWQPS
T1 sequence (Q9NYV4 686-1082): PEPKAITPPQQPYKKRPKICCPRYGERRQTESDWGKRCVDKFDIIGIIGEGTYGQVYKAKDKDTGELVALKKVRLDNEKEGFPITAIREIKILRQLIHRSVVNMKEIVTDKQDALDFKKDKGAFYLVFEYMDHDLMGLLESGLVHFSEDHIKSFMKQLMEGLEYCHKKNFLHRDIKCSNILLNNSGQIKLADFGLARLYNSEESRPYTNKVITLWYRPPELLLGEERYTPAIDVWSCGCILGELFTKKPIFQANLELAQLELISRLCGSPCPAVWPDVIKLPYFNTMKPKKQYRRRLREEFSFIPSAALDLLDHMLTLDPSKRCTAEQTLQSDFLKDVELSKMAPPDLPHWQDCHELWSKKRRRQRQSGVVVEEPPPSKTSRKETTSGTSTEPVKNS
T1 sequence (O75909 whole entry partner, the tested form may be a part): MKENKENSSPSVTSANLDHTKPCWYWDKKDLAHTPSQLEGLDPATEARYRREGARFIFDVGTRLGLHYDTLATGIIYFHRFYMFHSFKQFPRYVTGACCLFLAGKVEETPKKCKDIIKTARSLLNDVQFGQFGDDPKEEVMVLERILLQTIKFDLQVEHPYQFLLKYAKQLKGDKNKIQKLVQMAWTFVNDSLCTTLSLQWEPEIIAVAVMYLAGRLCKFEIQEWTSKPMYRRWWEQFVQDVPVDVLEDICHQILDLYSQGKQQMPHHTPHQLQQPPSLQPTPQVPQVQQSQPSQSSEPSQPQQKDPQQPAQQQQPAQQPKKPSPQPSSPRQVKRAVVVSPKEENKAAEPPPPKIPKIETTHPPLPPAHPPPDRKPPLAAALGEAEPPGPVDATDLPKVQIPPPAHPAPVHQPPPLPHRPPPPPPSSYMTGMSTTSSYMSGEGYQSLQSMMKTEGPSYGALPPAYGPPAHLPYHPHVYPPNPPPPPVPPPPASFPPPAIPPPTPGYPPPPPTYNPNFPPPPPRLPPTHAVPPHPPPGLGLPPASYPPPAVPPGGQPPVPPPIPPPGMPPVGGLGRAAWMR
CDK9/Cyclin T1 complex, sequence (P50750 whole entry): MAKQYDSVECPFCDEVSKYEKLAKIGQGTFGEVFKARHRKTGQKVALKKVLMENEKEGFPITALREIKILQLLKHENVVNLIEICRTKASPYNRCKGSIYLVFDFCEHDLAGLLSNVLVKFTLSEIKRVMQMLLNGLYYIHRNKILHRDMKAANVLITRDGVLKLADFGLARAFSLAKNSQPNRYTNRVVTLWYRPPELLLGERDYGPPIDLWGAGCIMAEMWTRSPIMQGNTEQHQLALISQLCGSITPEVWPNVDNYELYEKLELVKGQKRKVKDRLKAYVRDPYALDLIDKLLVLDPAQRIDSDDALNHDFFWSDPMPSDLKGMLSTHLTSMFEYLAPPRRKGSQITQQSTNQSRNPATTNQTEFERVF
CDK9/Cyclin T1 complex, sequence (O60563 whole entry partner): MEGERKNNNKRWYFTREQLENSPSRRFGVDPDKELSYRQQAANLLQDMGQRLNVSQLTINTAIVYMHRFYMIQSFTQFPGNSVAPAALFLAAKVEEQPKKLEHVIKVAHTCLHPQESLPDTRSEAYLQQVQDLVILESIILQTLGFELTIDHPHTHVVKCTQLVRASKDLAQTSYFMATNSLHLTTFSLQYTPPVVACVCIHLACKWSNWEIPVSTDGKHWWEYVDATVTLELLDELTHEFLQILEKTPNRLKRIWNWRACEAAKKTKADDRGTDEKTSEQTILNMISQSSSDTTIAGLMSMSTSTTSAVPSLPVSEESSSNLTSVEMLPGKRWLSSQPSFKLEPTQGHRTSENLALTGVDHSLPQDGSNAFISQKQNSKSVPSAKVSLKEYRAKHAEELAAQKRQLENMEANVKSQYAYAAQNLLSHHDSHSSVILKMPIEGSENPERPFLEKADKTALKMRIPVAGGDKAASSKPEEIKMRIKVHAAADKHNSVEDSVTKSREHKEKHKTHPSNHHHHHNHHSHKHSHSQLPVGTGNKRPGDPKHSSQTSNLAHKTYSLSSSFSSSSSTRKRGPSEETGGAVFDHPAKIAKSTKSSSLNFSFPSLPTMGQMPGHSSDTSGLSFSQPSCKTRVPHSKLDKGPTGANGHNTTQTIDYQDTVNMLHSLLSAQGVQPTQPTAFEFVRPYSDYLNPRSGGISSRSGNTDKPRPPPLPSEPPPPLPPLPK

SMILES | IC50 (CDK2/Cyclin E1 complex) [µM] | IC50 [1] [µM] | IC50 (CDK9/Cyclin T1 complex) [µM] | IC50 [2] [µM] | IC50 (A673 cells) [µM] | IC50 (HCC70 cells) [µM]
Cn1cc(-c2ccc3c(-c4nc(NC5CCCNC5)ncc4C(F)(F)F)c[nH]c3c2)cc1C#N (stereo not drawn) [Compound 225] | 0.2 to 5 | < 0.02 | 0.2 to 5 | 0.2 to 5 | 0.02 to 0.2 | 
Cc1nn(C)cc1-c1ccc2c(-c3nc(N[C@H]4CCCNC4)ncc3C(F)(F)F)c[nH]c2c1 [Compound 226] | 0.2 to 5 | < 0.02 | 0.2 to 5 | 0.2 to 5 | < 0.02 | 
Cc1c(-c2ccc3c(-c4nc(NC5CCCNC5)ncc4C(F)(F)F)c[nH]c3c2)cnn1C (stereo not drawn) [Compound 227] | 0.2 to 5 | < 0.02 | 0.2 to 5 | 0.2 to 5 | 0.02 to 0.2 | 
O=C(C1CCC(Nc2ncc(C(F)(F)F)c(-c3c[nH]c4ccccc34)n2)CN1)N1CCCC1 (stereo not drawn) [Compound 228] | 0.2 to 5 | < 0.02 | 0.2 to 5 | 0.2 to 5 | 0.02 to 0.2 | 
Cc1n[nH]cc1-c1ccc2[nH]cc(-c3nc(NC4CCCNC4)ncc3C(F)(F)F)c2c1 (stereo not drawn) [Compound 229] | 0.2 to 5 | < 0.02 | 0.2 to 5 | 0.2 to 5 | < 0.02 | 
FC(F)(F)c1cnc(N[C@H]2CCCNC2)nc1-c1c[nH]c2ccc(-c3ccnnc3)cc12 [Compound 230] | 0.2 to 5 | < 0.02 | 0.2 to 5 | 0.2 to 5 | 0.02 to 0.2 | 
CCc1cnc(NC2CCCNC2)nc1-c1c[nH]c2ncc(F)cc12 (stereo not drawn) [Compound 231] | ≥ 5 | ≥ 5 | ≥ 5 | ≥ 5 | 0.2 to 5 | 
N#Cc1cc(-c2ccc3c(-c4nc(NC5CCCNC5)ncc4C(F)(F)F)c[nH]c3c2)c[nH]1 (stereo not drawn) [Compound 233] | 0.2 to 5 | < 0.02 | 0.2 to 5 | 0.2 to 5 | 0.02 to 0.2 | 
CC(O)c1cnc(NC2CCCNC2)nc1-c1c[nH]c2ccccc12 (stereo not drawn) [Compound 234] | ≥ 5 | 0.2 to 5 | ≥ 5 | ≥ 5 | < 0.02 | 
Cc1nc(-c2ccc3c(-c4nc(NC5CCCNC5)ncc4C(F)(F)F)c[nH]c3c2)n[nH]1 (stereo not drawn) [Compound 235] | 0.2 to 5 | < 0.02 | 0.2 to 5 | 0.2 to 5 | 0.2 to 5 | 
FC1(F)CNC[C@@H](Nc2ncc(C(F)(F)F)c(-c3c[nH]c4ccccc34)n2)C1 [Compound 236] | 0.2 to 5 | < 0.02 | 0.2 to 5 | 0.2 to 5 | 0.02 to 0.2 | 
CC(O)c1cnc(NC2CCCNC2)nc1-c1c[nH]c2ccccc12 (stereo not drawn) [Compound 238] | ≥ 5 | 0.2 to 5 | ≥ 5 | ≥ 5 | 0.2 to 5 | 
CC(O)c1cnc(NC2CCCNC2)nc1-c1c[nH]c2ccccc12 (stereo not drawn) [Compound 239] | ≥ 5 | 0.2 to 5 | ≥ 5 | ≥ 5 | 0.2 to 5 | 
CCCCCc1ccc2c(-c3nc(N[C@@H]4CCCNC4)ncc3C(F)(F)F)c[nH]c2c1 [Compound 241] | 0.2 to 5 | 0.02 to 0.2 | 0.2 to 5 | 0.2 to 5 | 0.02 to 0.2 | 
CC(C)(O)CCc1ccc2c(-c3nc(NC4CCCNC4)ncc3C(F)(F)F)c[nH]c2c1 (stereo not drawn) [Compound 242] | ≥ 5 | 0.02 to 0.2 | 0.2 to 5 | 0.2 to 5 | 0.02 to 0.2 | 
CC1(C)CNC[C@@H](Nc2ncc(C(F)(F)F)c(-c3c[nH]c4ccccc34)n2)C1 [Compound 243] | 0.2 to 5 | < 0.02 | 0.2 to 5 | 0.02 to 0.2 | < 0.02 | 
Cc1nc(-c2ccc3c(-c4nc(NC5CCCNC5)ncc4C(F)(F)F)c[nH]c3c2)nn1C (stereo not drawn) [Compound 245] | 0.2 to 5 | < 0.02 | ≥ 5 | 0.2 to 5 | 0.02 to 0.2 | 
CC(O)c1cnc(NC2CCCNC2)nc1-c1c[nH]c2ccccc12 (stereo not drawn) [Compound 247] | ≥ 5 | 0.2 to 5 | ≥ 5 | ≥ 5 | 0.2 to 5 | 
N#Cc1cn(-c2ccc3c(-c4nc(NC5CCCNC5)ncc4C(F)(F)F)c[nH]c3c2)cn1 (stereo not drawn) [Compound 249] | ≥ 5 | < 0.02 | ≥ 5 | 0.2 to 5 | 0.02 to 0.2 | 

SMILES | IC50 (CDK2/Cyclin E1 complex) [µM] | IC50 [1] [µM] | IC50 (CDK9/Cyclin T1 complex) [µM] | IC50 [2] [µM] | IC50 (A673 cells) [µM] | IC50 (HCC70 cells) [µM]
CNC(=O)C1CNCC(Nc2ncc(C(F)(F)F)c(-c3c[nH]c4ccccc34)n2)C1 (stereo not drawn) [Compound 252] | 0.2 to 5 | 0.02 to 0.2 | ≥ 5 | ≥ 5 | 0.2 to 5 | 
CNC(=O)C1CNCC(Nc2ncc(C(F)(F)F)c(-c3c[nH]c4ccccc34)n2)C1 (stereo not drawn) [Compound 253] | 0.02 to 0.2 | < 0.02 | 0.2 to 5 | 0.02 to 0.2 | 0.02 to 0.2 | 
CNC(=O)C1CNCC(Nc2ncc(C(F)(F)F)c(-c3c[nH]c4ccccc34)n2)C1 (stereo not drawn) [Compound 256] | 0.2 to 5 | 0.02 to 0.2 | ≥ 5 | 0.2 to 5 | 0.2 to 5 | 
CC(C)C1CC[C@H](Nc2ncc(C(F)(F)F)c(-c3c[nH]c4ccccc34)n2)CN1 (stereo partly drawn) [Compound 257] | ≥ 5 | 0.02 to 0.2 | ≥ 5 | ≥ 5 | 0.2 to 5 | 
N#Cc1ccc2c(-c3nc(NC4CCCNC4)ncc3C(F)(F)F)c[nH]c2c1C#N (stereo not drawn) [Compound 258] | 0.2 to 5 | < 0.02 | 0.2 to 5 | 0.2 to 5 | 0.02 to 0.2 | 
CCC(=O)NC1CNCC(Nc2ncc(C(F)(F)F)c(-c3c[nH]c4c(S(C)(=O)=O)cccc34)n2)C1 (stereo not drawn) [Compound 259] | 0.2 to 5 | < 0.02 | 0.2 to 5 | 0.2 to 5 | 0.02 to 0.2 | 
CC(C)C1CCC(Nc2ncc(C(F)(F)F)c(-c3c[nH]c4ccccc34)n2)CN1 (stereo not drawn) [Compound 260] | ≥ 5 | 0.2 to 5 | ≥ 5 | 0.2 to 5 | 0.2 to 5 | 
CCc1cnc(NC2CCCNC2)nc1-c1n[nH]c2ncccc12 (stereo not drawn) [Compound 262] | 0.2 to 5 | < 0.02 | 0.2 to 5 | 0.2 to 5 | 0.02 to 0.2 | 
CS(=O)(=O)c1cccn2c(C3CNCC(Nc4ncc(C(F)(F)F)c(-c5c[nH]c6ccccc56)n4)C3)nnc12 (stereo not drawn) [Compound 265] | 0.2 to 5 | 0.2 to 5 | 0.2 to 5 | 0.2 to 5 | 0.02 to 0.2 | 
FC(F)(F)c1cnc(NC2CNCC(c3nnc4ccccn34)C2)nc1-c1c[nH]c2ccccc12 (stereo not drawn) [Compound 266] | 0.2 to 5 | 0.02 to 0.2 | 0.2 to 5 | 0.2 to 5 | 0.02 to 0.2 | 
CCc1cnc(NC2CCCNC2)nc1-c1c[nH]c2c(S(C)(=O)=O)cccc12 (stereo not drawn) [Compound 269] |  |  |  |  |  | 0.1 to 1
CCS(=O)(=O)c1ccc2c(-c3nc(NC4CCCNC4)ncc3C(F)(F)F)c[nH]c2c1 (stereo not drawn) [Compound 274] | 0.2 to 5 | < 0.02 | 0.2 to 5 | 0.2 to 5 | 0.02 to 0.2 | 
CCc1cnc(NC2CCCNC2)nc1-c1n[nH]c2cc(C#N)ccc12 (stereo not drawn) [Compound 275] | 0.2 to 5 | < 0.02 | 0.2 to 5 | 0.2 to 5 | 0.02 to 0.2 | 
CC(C)c1cnc(N[C@H]2CCCNC2)nc1-c1n[nH]c2nc(C#N)ccc12 [Compound 276] | ≥ 5 | 0.02 to 0.2 | ≥ 5 | ≥ 5 | 0.2 to 5 | 
Nc1nc2c(-c3ccc4c(-c5nc(NC6CCCNC6)ncc5C(F)(F)F)c[nH]c4c3)cccc2s1 (stereo not drawn) [Compound 312] |  | 0.02 to 0.2 |  | 0.2 to 5 |  | 0.1 to 1
N#Cc1cc(-c2ccc3c(-c4nc(NC5CCCNC5)ncc4C(F)(F)F)c[nH]c3c2)ccc1O (stereo not drawn) [Compound 315] |  | 0.02 to 0.2 |  | 0.2 to 5 |  | 1 to 5
FC(F)(F)c1cnc(N[C@H]2CCCNC2)nc1-c1c[nH]c2cc(/C=C/c3ccccc3)ccc12 [Compound 317] |  | 0.02 to 0.2 |  | 0.2 to 5 |  | 1 to 5
Fc1cncc(-c2ccc3c(-c4nc(NC5CCCNC5)ncc4C(F)(F)F)c[nH]c3c2)c1 (stereo not drawn) [Compound 335] |  |  |  |  |  | 0.1 to 1

Reference: patent US20230000870A1, “METHODS OF TREATING CANCER IN BIOMARKER-IDENTIFIED PATIENTS WITH INHIBITORS OF CYCLIN-DEPENDENT KINASE 7 (CDK7)” (Syros Pharmaceuticals, Inc., priority 2019, published 2023)
